Laboratory results from patent publication US10618869B2, “Oligo-benzamide compounds and their use” (The Board of Regents of the University of Texas System, priority 2010, dated 2020).
Entries after “also recorded” stand apart in the source; their conditions may differ.

Columns and labels:
human AR = target: T1, human AR (Homo sapiens, UniProt P10275); conditions: LXXLL motif-bound AF-2 interface of human AR; PLoS Biology 2:e274, 2004; read-out: Kd of LXXLL peptide; cited from earlier work
T1 sequence (P10275 1-920): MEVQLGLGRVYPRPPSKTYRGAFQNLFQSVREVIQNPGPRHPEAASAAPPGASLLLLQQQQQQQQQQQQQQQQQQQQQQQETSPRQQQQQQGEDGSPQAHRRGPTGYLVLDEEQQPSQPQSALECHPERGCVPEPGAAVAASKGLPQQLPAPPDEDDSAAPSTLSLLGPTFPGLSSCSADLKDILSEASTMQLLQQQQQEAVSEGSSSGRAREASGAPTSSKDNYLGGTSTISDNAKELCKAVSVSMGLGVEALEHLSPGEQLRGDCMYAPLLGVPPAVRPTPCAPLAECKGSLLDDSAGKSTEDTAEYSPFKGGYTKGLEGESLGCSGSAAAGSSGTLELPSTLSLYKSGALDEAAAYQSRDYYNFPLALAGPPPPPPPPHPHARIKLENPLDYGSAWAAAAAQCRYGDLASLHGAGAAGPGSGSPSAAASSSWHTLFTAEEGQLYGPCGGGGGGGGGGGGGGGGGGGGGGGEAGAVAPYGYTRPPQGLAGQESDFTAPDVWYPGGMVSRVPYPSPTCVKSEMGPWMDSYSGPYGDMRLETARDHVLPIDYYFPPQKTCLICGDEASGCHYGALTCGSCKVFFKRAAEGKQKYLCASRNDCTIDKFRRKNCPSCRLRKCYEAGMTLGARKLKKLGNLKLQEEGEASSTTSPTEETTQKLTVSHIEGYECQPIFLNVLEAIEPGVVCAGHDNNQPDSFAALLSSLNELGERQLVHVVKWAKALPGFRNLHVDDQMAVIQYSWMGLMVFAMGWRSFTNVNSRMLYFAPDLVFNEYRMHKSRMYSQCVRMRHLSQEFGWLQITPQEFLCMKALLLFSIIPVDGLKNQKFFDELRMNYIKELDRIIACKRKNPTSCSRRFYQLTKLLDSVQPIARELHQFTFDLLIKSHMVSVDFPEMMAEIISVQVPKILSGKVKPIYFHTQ

[1] = system: PCa cell lines that contain AR; assay: DHT-induced proliferation of prostate cancer cells (MTT assay); assay type: cell-based; conditions: DHT-induced proliferation, MTT assay; structure-function series
Procedure: FIGS. 10A-E. D2 blocks proliferation of prostate cancer cells in vitro and in vivo (a) Effect of pretreatment with 100 nM of D1 and D2 on DHT-induced proliferation in multiple prostate cancer cell lines in MTT assay. Numbers are normalized to a baseline of 100, which represents the untreated rate of proliferation. (b) Effect of pretreatment with 100 nM of D1 and D2 on DHT-induced proliferation in LNCaPcells on a Cyquant assay. (c) Dose dependent curve of D2 on proliferation of LAPC4 cells. (d) Rescue of DHT induced proliferation by overexpression of PELP1 following suppression of DHT induced proliferation with 100 nM of D2. (e). Effect of direct intratumoral injections of D1 and D2 on the proliferation of prostate cancer xenografts in animal models: Following establishment of subcutaneous xenografts in animal models, daily direct intratumoral injections of D1 and D2 were performed. Bioluminesence imaging was used to track the growth of the tumors and the effect of D1 and D2 quantitated as shown in the graph.
The importance of PELP1 and AR interaction on DHT-mediated proliferation of prostate cancer cells were confirmed using rescue experiments, where D2 suppression of DHT-mediated proliferation was overcome by overexpression of PELP1 in LNCaP PCa cells.
(§1) In this experiment, cells were plated (2-10×10^3/well) in 96 well plates and subjected to androgen deprivation for 48 hours with phenol-red free RPMI and 1% charcoal stripped fetal bovine serum (CSF). Cells were then treated with either ethanol, EGF or DHT as a positive control for 48 hours. Peptidomimetics were added 2 hours prior to treatment. Cell proliferation was measured using the MTT colorimetric assay.
as §1, with “Cells” for “In this experiment, cells”, “96-well” for “96 well”, “ethanol” for “ethanol, EGF”, “hours” for “hours.”

SSRGLLWDLLTKDSR [LXXLL peptide co-crystallised with human AR AF-2]
Kd (human AR): 1.8 µM

C=C(C)COc1cc(C(=O)OC)ccc1NC(=O)c1ccc([N+](=O)[O-])c(OCC(=C)C)c1 [D29]
activity on the proliferation of prostate cancer cells (FIGS. 17, 19A-N) [1]: good activity

COC(=O)c1ccc(NC(=O)c2ccc([N+](=O)[O-])c(NCC(C)C)c2)c(NCC(C)C)c1 [D2-47]
activity on the proliferation of prostate cancer cells (FIGS. 17, 19A-N) [1]: good activity

CC(C)COc1cc(C(=O)Nc2ccc(C(N)=O)cc2OCC(C)C)ccc1NC(=O)CCC(=O)O [D2-12]
activity on the proliferation of prostate cancer cells (FIGS. 17, 19A-N) [1]: good activity

CC(C)COc1cc(C(=O)Nc2ccc(C(N)=O)cc2OCCc2ccc3ccccc3c2)ccc1NC(=O)c1ccc([N+](=O)[O-])c(OCC(C)C)c1 [TK6-R]
activity on the proliferation of prostate cancer cells (FIGS. 17, 19A-N) [1]: good activity

CC(C)COc1cc(C(=O)Nc2ccc(C(=O)N(C(C)C)C(C)C)cc2OCC(C)C)ccc1NC(=O)CN [D2-23]
activity on the proliferation of prostate cancer cells (FIGS. 17, 19A-N) [1]: good activity

CC(C)COc1cc(C(=O)Nc2ccc(C(=O)NCCCCO)cc2OCC(C)C)ccc1NC(=O)CN [D2-26]
activity on the proliferation of prostate cancer cells (FIGS. 17, 19A-N) [1]: good activity

COC(=O)c1ccc(NC(=O)c2ccc(NC(=O)CN)c(OCC(C)C)c2)c(OCC(C)C)c1 [D2-4]
activity on the proliferation of prostate cancer cells (FIGS. 17, 19A-N) [1]: maximal activity; also recorded: good activity
